Test results reported in ChEMBL document CHEMBL5620382, “Fluoroindole chalcone analogues targeting the colchicine binding site of tubulin for colorectal oncotherapy” (Eur J Med Chem, 2023).
Activity calls are given as the source filed them.

Assays:
HCT-116 [1] = test: Antiproliferative activity against human HCT116 cells assessed as inhibition of proliferation measured after 24 hrs by CCK-8 assay; type: functional, cell-based; conditions: HCT-116, 24 h
CT26 [2] = test: Antiproliferative activity against mouse CT26 cells assessed as inhibition of proliferation measured after 24 hrs by CCK-8 assay; type: functional, cell-based; conditions: CT26, 24 h
NCM460 = test: Antiproliferative activity against human NCM460 cells assessed as inhibition of proliferation at 2.5 to 20 nM measured after 24 hrs by CCK-8 assay; type: toxicity, cell-based; conditions: ncm460, 24 h, 0.02 µM, dose 2.5-20 nM
HCT-116 [3] = test: Antiproliferative activity against human HCT-116 cells assessed as dead cells at 2.5 to 20 nM measured after 24 hrs by Calcein-AM/PI staining based immunofluorescence analysis; type: functional, cell-based; conditions: dose 2.5-20 nM
CT26 [4] = test: Antiproliferative activity against mouse CT26 cells assessed as dead cells at 2.5 to 40 nM measured after 24 hrs by Calcein-AM/PI staining based immunofluorescence analysis; type: functional, cell-based; conditions: dose 2.5-40 nM
HCT-116 [5] = test: Induction of apoptosis in human HCT116 cells assessed as dead cells at 2.5 to 20 nM measured after 24 hrs by PI/Annexin V-FITC staining based flow cytometry; type: functional, cell-based; conditions: dose 2.5-20 nM
CT26 [6] = test: Induction of apoptosis in mouse CT26 cells assessed as dead cells at 2.5 to 40 nM measured after 24 hrs by PI/Annexin V-FITC staining based flow cytometry; type: functional, cell-based; conditions: dose 2.5-40 nM
HCT-116 [7] = test: Anti-tumor activity against human HCT116 cells xenografted in BALB/c mouse assessed as inhibition of tumor growth at 1.5 to 3 mg/kg, ip thrice a week for three weeks; type: functional, organism-based; conditions: dose 1.5-3 mg/kg, time 3.0 weeks
HCT-116 [8] = test: Anti-tumor activity against human HCT-116 cells xenografted in BALB/c mouse assessed as inhibition of cell proliferation in tumor section at 3 mg/kg, ip thrice a week for three weeks by Ki-67 staining based assay; type: functional, organism-based; conditions: time 3.0 weeks
HCT-116 [9] = test: Anti-tumor activity against human HCT-116 cells xenografted in BALB/c mouse assessed as apoptosis in tumor section at 3 mg/kg, ip thrice a week for three weeks by TUNEL staining based assay; type: functional, organism-based; conditions: time 3.0 weeks
CT26 [10] = test: Induction of cell cycle arrest in mouse CT26 cells […] assessed as accumulation of cells at G2/M phase at 2.5 to 10 nM by flow cytometry analysis; type: functional, cell-based; conditions: dose 2.5-10 nM
Tubulin (Homo sapiens) [11] = molecular target: T1, Tubulin (Homo sapiens) (UniProt P68371+Q9H4B7+P0DPH7+P68366+Q13509+Q71U36+P04350+Q3ZCM7+P07437+P68363+Q9BQE3+Q6PEY2+Q13885+Q9BVA1+Q9BUF5); test: Inhibition of tubulin polymerization (unknown origin); type: protein-complex assay; conditions: dose 12.5-100 µM
Tubulin (Homo sapiens) [12] = molecular target: T1, Tubulin (Homo sapiens); test: Disruption of microtubule assembly in human HCT-116 cells assessed as reduced/disorganized microtubule network measured after 24 hrs by high-resolution microscopy; type: cell-based
HCT-116 [13] = test: Induction of endoplasmic reticulum (ER) stress in human HCT-116 cells assessed as rough long-linear and irregularly dilated with locally verified expansion at 10 to 20 nM measured after 24 hrs by transmission electron microscope (TEM) analysis; type: functional, cell-based; conditions: dose 10-20 nM
CT26 [14] = test: Disruption of microtubule assembly in mouse CT26 cells assessed as reduced/disorganized microtubule network measured after 24 hrs by high-resolution microscopy; type: functional, cell-based
HCT-116 [15] = test: Induction of endoplasmic reticulum (ER) stress in human HCT-116 cells assessed as increase p-PERK expression at 10 to 20 nM measured after 24 hrs by Western blot analysis; type: functional, cell-based; conditions: dose 10-20 nM
HCT-116 [16] = test: Induction of endoplasmic reticulum (ER) stress in human HCT-116 cells assessed as increase p-eIF2alpha expression at 10 to 20 nM measured after 24 hrs by Western blot analysis; type: functional, cell-based; conditions: dose 10-20 nM
HCT-116 [17] = test: Induction of mitochondrial damage in human HCT-116 cells at 10 to 20 nM measured after 24 hrs by transmission electron microscope (TEM) analysis; type: functional, cell-based; conditions: dose 10-20 nM
HCT-116 [18] = test: Induction of endoplasmic reticulum (ER) stress in human HCT-116 cells assessed as increase in ROS level at 10 to 20 nM measured after 24 hrs by DCFH-DA analysis; type: functional, cell-based; conditions: dose 10-20 nM
CT26 [19] = test: Induction of endoplasmic reticulum (ER) stress in mouse CT26 cells assessed as increase in ROS level at 10 to 40 nM measured after 24 hrs by DCFH-DA analysis; type: functional, cell-based; conditions: dose 10-40 nM
HCT-116 [20] = test: Induction of endoplasmic reticulum (ER) stress in human HCT-116 cells assessed as increase in ROS level at 10 nM measured after 24 hrs by fluorescent analysis (reference value: 12%); type: functional
CT26 [21] = test: Induction of endoplasmic reticulum (ER) stress in mouse CT26 cells assessed as increase in ROS level at 2.5 nM measured after 24 hrs by fluorescent analysis (reference value: 14%); type: functional
CT26 [22] = test: Induction of endoplasmic reticulum (ER) stress in mouse CT26 cells assessed as increase in ROS level at 20 nM measured after 24 hrs by fluorescent analysis (reference value: 14%); type: functional
Colon cancer organoid = test: Antitumor activity against patient-derived Colorectal cancer organoid model assessed as inhibition of organoid growth by immunofluorescence assay; type: functional, tissue-based; conditions: Homo sapiens
Mus musculus [23] = test: Antitumor activity against C57BL/6-APCmin/+ mouse model assessed as reduction in number of tumors in intestine at 3 mg/kg, ip treated for 45 days relative to control; type: functional, organism-based; conditions: time 45.0 day
[24] = Toxicity in C57B/6-APCmin/+ mouse model assessed as organ toxicity at 3 mg/kg, ip treated for 45 days by H and E staining; type: organism-based; conditions: in vivo, 1080 h, time 45 day
Mus musculus [25] = test: Antitumor activity against C57B/6-APCmin/+ mouse model assessed as increase in phosphorylation of eIF2alpha in tumors at 3 mg/kg, ip treated for 45 days relative to control; type: functional, organism-based; conditions: time 45.0 day
Mus musculus [26] = test: Antitumor activity against C57B/6-APCmin/+ mouse model assessed as increase in phosphorylation of IRE1alpha in tumors at 3 mg/kg, ip treated for 45 days relative to control; type: functional, organism-based; conditions: time 45.0 day

COc1cc(C(=O)/C(C)=C/c2c[nH]c3cc(F)ccc23)cc(OC)c1OC
2.06 nM: IC50 (Colon cancer organoid)
18.7 nM: IC50 (CT26 [2])
4.52 nM: IC50 (HCT-116 [1])
60.1%: Activity (CT26 [22])
Non-Toxic: Activity (NCM460) | Activity [24]
active: Activity (HCT-116 [3]) | Activity (CT26 [4]) | Activity (HCT-116 [5]) | Activity (CT26 [6]) | Activity (HCT-116 [7]) | Activity (HCT-116 [8]) | Activity (HCT-116 [9]) | Activity (CT26 [10]) | inhibition (Tubulin (Homo sapiens) [11]) Dose-Dependent Effect | Activity (Tubulin (Homo sapiens) [12]) | Activity (HCT-116 [13]) | Activity (CT26 [14]) | Activity (HCT-116 [15]) | Activity (HCT-116 [16]) | Activity (HCT-116 [17]) | Activity (HCT-116 [18]) | Activity (CT26 [19]) | Activity (Mus musculus [23]) | Activity (Mus musculus [25]) | Activity (Mus musculus [26])
73.8%: Activity (HCT-116 [20])
14.5%: Activity (CT26 [21])
